{"source": "patent US4256751A", "about": "“Tetrahydroisoquinoline derivatives” (Tanabe Seiyaku Co., Ltd., priority 1978, dated 1981)", "key": {"[1]": {"tested_on": "ACE", "assay": "ACE-inhibitory activity in vivo (pressor response to angiotensin I)", "design": "species or system rat (normotensive)", "settings": "0.1 mg/kg intravenously; angiotensin I 300 ng/kg i.v.; anesthetized normotensive rats", "method": "Normotensive rats weighing 300-400 g were anesthetized with urethane(1.5 g/kg, s.c.), and angiotensin I (300 ng/kg) was injected into the femoral vein of the rats. The pressor response to angiotensin I was measured with a pressure transducer connected to the carotid artery. Then, a test compound was injected intravenously thereto at a dose of 0.1 mg/kg, and angiotensin I (300 ng/kg) was further injected intravenously at intervals. The ACE-inhibitory activity of the test compound was estimated from the pressor responses to angiotensin I which were obtained before and after intraveous injection of the test compound."}, "[2]": {"tested_on": "spontaneously hypertensive rats (SHR)", "assay": "Hypotensive activity in SHR", "format": "in vivo, rat (SHR)", "settings": "50 mg/kg orally", "method": "A test compound (dose: 50 mg/kg) suspended in an aqueous carboxymethylcellulose solution was administered orally to spotaneously hypertensive rats (SHR) fasted for a day. The systolic blood pressure of the rats was measured by the tail plethysmographic technique (The Journal of Laboratory and Clinic Medicine 78(1971), page 957). The hypotensive activity of the test compound was estimated from the decreased level of blood pressure."}, "[3]": {"tested_on": "mice", "assay": "Oral toxicity in mice", "format": "in vivo", "settings": "3 g/kg", "text": ". Moreover, the compound (I) of the present invention decreases aggregation of blood platelets and can be used to improve blood flow disturbances or other vascular diseases due to the formation of platelet aggregates (i.e., thrombus). Since the hypertensive disease is largely found in the aged subjects who show an increased tendency to capillary fragility or thrombosis, therefore, the compound (I) of the invention is useful to prevent, in addition to the treatment of hypertension, the genesis of thrombosis and other occlusive vascular diseases of such subjects. Further, the toxicity of the compound (I) is considerably low. […]"}, "[4]": {"tested_on": "ADP-induced platelet aggregation", "assay": "Platelet aggregation-inhibiting activity (ADP-induced, diluted platelet-rich plasma)", "format": "cell-based, dog (male beagle)", "settings": "Canis lupus familiaris, test compound solution 100 μg/ml, added 2 minutes before ADP, beagle PRP, read-out: Platelet aggregation inhibiting activity (percentage inhibition of the second wave of ADP-induced platelet aggregation)", "method": "The bottom layer was further centrifuged at 1000×g for 15 minutes to give platelet-poor plasma (PPP) as the supernatant solution."}}}
{"smiles": "C[C@H](CS)C(=O)N1Cc2ccccc2C[C@H]1C(=O)O", "note": "[(3S)-2-[(2S)-3-mercapto-2-methyl-propionyl]-1,2,3,4-tetrahydroisoquinoline-3-carboxylic acid]", "values": [{"measurement": "ACE-inhibitory activity in vivo (percentage inhibition of ACE activity in vivo)", "setting": "[1]", "value": 90, "unit": "%"}, {"measurement": "Hypotensive activity in SHR: Duration of action", "setting": "[2]", "value": "> 6", "unit": "h"}, {"measurement": "Hypotensive activity in SHR: Decrease in blood pressure", "setting": "[2]; systolic, tail plethysmographic", "value": "ca. 20%"}, {"measurement": "mortality five days after oral administration", "setting": "[3]", "value": "no mouse died"}, {"measurement": "inhibition at 100 µg/mL", "setting": "[4]", "value": 86, "unit": "%"}]}
